In brackets after ≈: the same amount, converted by molar mass. Like-named read-outs stand apart in the source and are kept apart here.
Tests used:
Ps. aeruginosa IF03445 = assay: in vitro antibacterial activity, agar plate dilution method (MIC); type: cell-based, Pseudomonas aeruginosa; conditions: 10^6 CFU/ml; for MIC: Pseudomonas aeruginosa, IF03445, 16 h, read-out: Minimum Inhibitory Concentration (MIC), Ps. aeruginosa IF03445
Outline: (§1)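 MIC in μg/ml, read after 16 h at 37° C. on Mueller Hinton agar carrying graded compound levels; inoculum 10^6 CFU/ml from overnight Mueller Hinton broth.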

Ps. aeruginosa AKR17 = assay: as above; type: cell-based, Pseudomonas aeruginosa; conditions: Ps. aeruginosa AKR17, 10^6 CFU/ml; for MIC: Pseudomonas aeruginosa, 16 h, read-out: Minimum Inhibitory Concentration (MIC)
Outline: as §1

Ps. aeruginosa AK 109 = assay: as above; type: cell-based, Pseudomonas aeruginosa; conditions: for MIC: Pseudomonas aeruginosa, AK109, 16 h, read-out: Minimum Inhibitory Concentration (MIC)
Outline: as §1

E. coli GN5482 = assay: as above; type: cell-based; conditions: for MIC: Escherichia coli, GN5482, 16 h, read-out: Minimum Inhibitory Concentration (MIC)
Outline: as §1

K. pneumoniae No. 42 = assay: as above; type: cell-based; conditions: 10^6 CFU/ml; for MIC: Klebsiella pneumoniae, NO.42, 16 h, read-out: Minimum Inhibitory Concentration (MIC), *K. pneumoniae No. 42, lactamase-producing strain
Outline: as §1

E. coli NIHJ JC2 = assay: as above; type: cell-based; conditions: Escherichia coli, NIHJJC2, 16 h, read-out: Minimum Inhibitory Concentration (MIC), E. coli NIHJ JC2, 10^6 CFU/ml, 37° C.
Outline: as §1

S. marcescens IAM 1184 = assay: as above; type: cell-based; conditions: Serratia marcescens, IAM1184, 16 h, read-out: Minimum Inhibitory Concentration (MIC)
Outline: as §1

S. aureus 209P NIHJ-JC1 = assay: as above; type: cell-based; conditions: for MIC: Staphylococcus aureus, 16 h
Outline: as §1

E. cloacae Nek 39 = assay: as above; type: cell-based; conditions: 10^6 CFU/ml; for MIC: Enterobacter cloacae, NEK39, 16 h, read-out: Minimum Inhibitory Concentration (MIC), *E. cloacae Nek 39, lactamase-producing strain
Outline: as §1

K. oxytoca GN10650 = assay: as above; type: cell-based; conditions: 10^6 CFU/ml; for MIC: Klebsiella oxytoca, GN10650, 16 h, read-out: Minimum Inhibitory Concentration (MIC), *K. oxytoca GN10650, lactamase-producing strain
Outline: as §1

E. cloacae 963 = assay: as above; type: cell-based; conditions: 10^6 CFU/ml
Outline: as §1

P. vulgaris HX-19 = assay: as above; type: cell-based; conditions: P. vulgaris HX-19, 10^6 CFU/ml; for MIC: Proteus vulgaris, HX19, 16 h, read-out: Minimum Inhibitory Concentration (MIC)
Outline: as §1

M. morganii GN5407 = assay: as above; type: cell-based; conditions: 10^6 CFU/ml; for MIC: Morganella morganii, GN5407, 16 h, read-out: Minimum Inhibitory Concentration (MIC), *M. morganii GN5407, lactamase-producing strain
Outline: as §1

S. marcescens No. 16-2 = assay: as above; type: cell-based; conditions: Serratia marcescens, NO.162, 16 h
Outline: as §1

P. vulgaris No. 33 = assay: as above; type: cell-based; conditions: 10^6 CFU/ml; for MIC: Proteus vulgaris, NO.33, 16 h, read-out: Minimum Inhibitory Concentration (MIC), *P. vulgaris No. 33, lactamase-producing strain
Outline: as §1

K. pneumoniae PCI-602 = assay: as above; type: cell-based; conditions: Klebsiella pneumoniae, PCI602, 16 h, 10^6 CFU/ml
Outline: as §1

Ps. cepacia 23 = assay: as above; type: cell-based, Pseudomonas cepacia; conditions: Ps. cepacia 23, 10^6 CFU/ml; for MIC: Burkholderia cepacia, 16 h, read-out: Minimum Inhibitory Concentration (MIC)
Outline: as §1

E. coli CSH(RE45) = assay: microbe, parasite or virus in culture; type: cell-based; conditions: 10^6 CFU/ml; for MIC: Escherichia coli, 16 h, read-out: Minimum Inhibitory Concentration (MIC), *E. coli CSH(RE45), lactamase-producing strain
Outline: as §1

E. coli CSH2 (RK1) = assay: microbe, parasite or virus in culture; type: cell-based; conditions: 10^6 CFU/ml; for MIC: Escherichia coli, 16 h, read-out: Minimum Inhibitory Concentration (MIC), *E. coli CSH2 (RK1), lactamase-producing strain
Outline: as §1

A. calcoaceticus No. 4 = assay: in vitro antibacterial activity, agar plate dilution method (MIC); type: cell-based, Acinetobacter calcoaceticus; conditions: 10^6 CFU/ml; for MIC: Acinetobacter calcoaceticus, NO.4, 16 h, read-out: Minimum Inhibitory Concentration (MIC), A. calcoaceticus No. 4
Outline: as §1

[1] = read-out: Minimum Inhibitory Concentration (MIC)
[2] = S. marcescens IAM 1184, 10^6 CFU/ml
[3] = read-out: Minimum Inhibitory Concentration (MIC), S. aureus 209P NIHJ-JC1, 10^6 CFU/ml, 37° C., 16 hours
[4] = Enterobacter cloacae, 16 h, E. cloacae 963, read-out: Minimum Inhibitory Concentration (MIC)
[5] = read-out: Minimum Inhibitory Concentration (MIC), *S. marcescens No. 16-2, lactamase-producing strain, 10^6 CFU/ml
[6] = read-out: Minimum Inhibitory Concentration (MIC), K. pneumoniae PCI-602

CC(=O)Oc1ccc(-c2nc(SCC3=C(C(=O)O)N4C(=O)C(NC(=O)C(=NOC(C(=O)O)c5ccccc5)c5csc(N)n5)C4SC3)sc2CC(=O)O)cc1OC(C)=O (single isomer, unassigned) [Example 61 DB]
Minimum Inhibitory Concentration (MIC) (Ps. aeruginosa IF03445; Ps. aeruginosa IF03445): 3.12 µg/mL
Minimum Inhibitory Concentration (MIC) (Ps. aeruginosa AKR17): 0.78 µg/mL
Minimum Inhibitory Concentration (MIC) (Ps. aeruginosa AK 109; Ps. aeruginosa AK 109, 10^6 CFU/ml): 1.56 µg/mL
Minimum Inhibitory Concentration (MIC) (E. coli GN5482; *E. coli GN5482, lactamase-producing strain, 10^6 CFU/ml): 1.56 µg/mL
Minimum Inhibitory Concentration (MIC) (K. pneumoniae No. 42; *K. pneumoniae No. 42, lactamase-producing strain): 0.39 µg/mL
MIC (E. coli NIHJ JC2): 3.12 µg/mL (≈ 3.53 µM)
MIC (S. marcescens IAM 1184): 0.39 µg/mL (≈ 0.442 µM)
Minimum Inhibitory Concentration (MIC) (S. aureus 209P NIHJ-JC1; S. aureus 209P NIHJ-JC1, 10^6 CFU/ml, 37° C., 16 hours): 50 µg/mL
Minimum Inhibitory Concentration (MIC) (E. cloacae Nek 39; *E. cloacae Nek 39, lactamase-producing strain): 0.39 µg/mL
Minimum Inhibitory Concentration (MIC) (K. oxytoca GN10650; *K. oxytoca GN10650, lactamase-producing strain): 0.2 µg/mL
Minimum Inhibitory Concentration (MIC) (E. cloacae 963; E. cloacae 963): 0.78 µg/mL
Minimum Inhibitory Concentration (MIC) (P. vulgaris HX-19): 0.05 µg/mL
Minimum Inhibitory Concentration (MIC) (M. morganii GN5407; *M. morganii GN5407, lactamase-producing strain): 0.39 µg/mL
MIC (S. marcescens No. 16-2; [1]): 3.12 µg/mL (≈ 3.53 µM)
Minimum Inhibitory Concentration (MIC) (P. vulgaris No. 33; *P. vulgaris No. 33, lactamase-producing strain): 0.2 µg/mL
MIC (K. pneumoniae PCI-602; K. pneumoniae PCI-602, read-out: Minimum Inhibitory Concentration (MIC)): 0.025 µg/mL (≈ 0.0283 µM)
Minimum Inhibitory Concentration (MIC) (Ps. cepacia 23): < 0.006 µg/mL
Minimum Inhibitory Concentration (MIC) (E. coli CSH(RE45); *E. coli CSH(RE45), lactamase-producing strain): 12.5 µg/mL
Minimum Inhibitory Concentration (MIC) (E. coli CSH2 (RK1); *E. coli CSH2 (RK1), lactamase-producing strain): 0.05 µg/mL
Minimum Inhibitory Concentration (MIC) (A. calcoaceticus No. 4; A. calcoaceticus No. 4): 0.39 µg/mL

CO/N=C(\C(=O)N[C@@H]1C(=O)N2C(C(=O)O)=C(CSc3nnc(-c4ccc(O)c(O)c4)o3)CS[C@H]12)c1csc(N)n1 [Ex. 1, sodium 7β-[2-(2-aminothiazol-4-yl)-2-methoxyiminoacetamido]-3-[5-(3, 4dihydroxyphenyl)-1,3,4-oxadiazol-2-yl]thiomethyl-3-cephem-4-carboxylate]
MIC (Ps. aeruginosa IF03445): 0.78 µg/mL
MIC (Ps. aeruginosa AKR17): > 100 µg/mL
MIC (Ps. aeruginosa AK 109): 0.39 µg/mL
MIC (E. coli GN5482): 0.39 µg/mL
MIC (K. pneumoniae No. 42): 0.025 µg/mL
MIC (E. coli NIHJ JC2): 0.05 µg/mL
MIC (S. marcescens IAM 1184; [2]): < 0.006 µg/mL
MIC (S. aureus 209P NIHJ-JC1; [3]): 1.56 µg/mL
MIC (E. cloacae Nek 39): 0.05 µg/mL
MIC (K. oxytoca GN10650): 0.39 µg/mL
MIC (E. cloacae 963; [4]): < 0.006 µg/mL
MIC (P. vulgaris HX-19): < 0.006 µg/mL
MIC (M. morganii GN5407): 0.0125 µg/mL
MIC (S. marcescens No. 16-2; [5]): 0.78 µg/mL
MIC (P. vulgaris No. 33): 0.0125 µg/mL
MIC (K. pneumoniae PCI-602; [6]): < 0.006 µg/mL
MIC (Ps. cepacia 23): 0.1 µg/mL
MIC (E. coli CSH(RE45)): 0.78 µg/mL
MIC (E. coli CSH2 (RK1)): < 0.006 µg/mL
MIC (A. calcoaceticus No. 4): 0.1 µg/mL

CO/N=C(\C(=O)N[C@@H]1C(=O)N2C(C(=O)O)=C(CSc3nnc(-c4ccc(OC(C)=O)c(OC(C)=O)c4)o3)CS[C@H]12)c1csc(N)n1 [Ex. 4, sodium 3-[5-(3,4-diacetoxyphenyl)-1,3,4-oxadiazol-2-yl]thiomethyl-7β-[2-(2-thiazol-4-yl)-2-methoxyiminoacetamido]-3-cephem-4carboxylate]
MIC (Ps. aeruginosa IF03445): 0.78 µg/mL
MIC (Ps. aeruginosa AKR17): > 100 µg/mL
MIC (Ps. aeruginosa AK 109): 0.39 µg/mL
MIC (E. coli GN5482): 0.39 µg/mL
MIC (K. pneumoniae No. 42): 0.025 µg/mL
MIC (E. coli NIHJ JC2): 0.05 µg/mL
MIC (S. marcescens IAM 1184; [2]): < 0.006 µg/mL
MIC (S. aureus 209P NIHJ-JC1; [1]): 3.12 µg/mL
MIC (E. cloacae Nek 39): 0.05 µg/mL
MIC (K. oxytoca GN10650): 0.39 µg/mL
MIC (E. cloacae 963; [4]): < 0.006 µg/mL
MIC (P. vulgaris HX-19): < 0.006 µg/mL
MIC (M. morganii GN5407): 0.0125 µg/mL
MIC (S. marcescens No. 16-2; [5]): 1.56 µg/mL
MIC (P. vulgaris No. 33): 0.0125 µg/mL
MIC (K. pneumoniae PCI-602; [6]): < 0.006 µg/mL
MIC (Ps. cepacia 23): 0.1 µg/mL
MIC (E. coli CSH(RE45)): 0.78 µg/mL
MIC (E. coli CSH2 (RK1)): < 0.006 µg/mL
MIC (A. calcoaceticus No. 4): 0.1 µg/mL

CCO/N=C(\C(=O)N[C@@H]1C(=O)N2C(C(=O)O)=C(CSc3nnc(-c4ccc(O)c(O)c4)o3)CS[C@H]12)c1csc(N)n1 [Ex. 5, sodium 7β-[2-(2-aminothiazol-4-yl)-2-ethoxyiminoacetamido]-3-[5-(3,4-dihydroxyphenyl)-1,3,4-oxadiazol-2-yl]thiomethyl-3-cephem-4-carboxylate]
MIC (Ps. aeruginosa IF03445): 0.39 µg/mL
MIC (Ps. aeruginosa AKR17): > 100 µg/mL
MIC (Ps. aeruginosa AK 109): 0.39 µg/mL
MIC (E. coli GN5482): 0.39 µg/mL
MIC (K. pneumoniae No. 42): 0.05 µg/mL
MIC (E. coli NIHJ JC2): 0.05 µg/mL
MIC (S. marcescens IAM 1184): 0.0125 µg/mL
MIC (S. aureus 209P NIHJ-JC1; [3]): 0.78 µg/mL
MIC (E. cloacae Nek 39): 0.1 µg/mL
MIC (K. oxytoca GN10650): 0.78 µg/mL
MIC (E. cloacae 963; Enterobacter cloacae, 963, 16 h, read-out: Minimum Inhibitory Concentration (MIC), E. cloacae 963): 0.0125 µg/mL
MIC (P. vulgaris HX-19): < 0.006 µg/mL
MIC (M. morganii GN5407): 0.025 µg/mL
MIC (S. marcescens No. 16-2; [5]): 0.78 µg/mL
MIC (P. vulgaris No. 33): 0.025 µg/mL
MIC (K. pneumoniae PCI-602; [6]): < 0.006 µg/mL
MIC (Ps. cepacia 23): < 0.006 µg/mL
MIC (E. coli CSH(RE45)): 0.0125 µg/mL
MIC (E. coli CSH2 (RK1)): 0.0125 µg/mL
MIC (A. calcoaceticus No. 4): 0.1 µg/mL
